For data set [1], the system named is U87 glioblastoma cells. The data set can be described thus: Cell viability by MTT assay. To be noted: 24 h; for IC50: read-out: IC50, growth inhibition of U87 glioblastoma cells. Type of data set: cell-based. Here is the method: U87 glioblastoma cells were obtained from American Type Culture Collection (ATCC, USA) and maintained in Dulbecco's Modified Eagle's Medium (DMEM) supplemented with 10% fatal bovine serum (FBS) in 5% CO2 at 37°C. Cells were treated with various concentrations of PLAB dissolved in DMSO with a final DMSO concentration of 1% or with DMSO alone for 24 h. DMSO-treated cells were used as control.
Cell viability was assessed by MTT assay and live/dead assay as described by us previously. Briefly U87 cells were treated with various concentrations of PLAB (1 to 100 μM) or Doxorubicin (0.25 to 20 μM) for 24 h. Following treatment, the MTT reagent was added (500 μg/mL) and cells were further incubated at 37°C for 4 h. Subsequently 150 μL DMSO was added to dissolve farmazan crystals and absorbance was measured at 570 nm in a microplate reader (Thermo Scientific). Results were expressed as the percentage of MTT reduction, assuming that the absorbance of control cells was 100%.
Background: Tetrazolium assays rely on reduction of a dye to a coloured formazan, in cell work by metabolically active cells.

For data set [2], the system named is U87 glioblastoma cells. The data set can be described thus: Live/dead assay, calcein AM and PI, flow cytometry. It is filed as cell-based. To be noted: 24 h, read-out: viability of U87 glioblastoma cells (live/dead assay). Here is the method:
Furthermore, live and dead cells were quantified using the fluorescent probes calcein AM and PI. Calcein AM is cell membrane permeable and stains only viable cells, whereas PI is cell membrane impermeable and stains only dead cells. After treatment, cells were collected, washed with phosphate buffered saline (PBS) and incubated with PBS solution containing 2 μM calcein AM and 4 μM PI in the dark for 20 min at room temperature. After washing, cells were resuspended in PBS and analyzed for the fluorescence of calcein and PI by flow cytometry (Beckman Coulter, Epics XL).

Data set [3] relates to U87 glioblastoma cells. Description: Nuclear morphology / DNA fragmentation by Hoechst 33258 staining. Type of data set: cell-based. To be noted: 5 and 10 μM, 24 h, Hoechst 33258, dose-dependent. How it is done:
After treatment with 5 and 10 μM PLAB for 24 h, U87 cells were collected by centrifugation at 1500 rpm for 5 min, washed twice with PBS and fixed with 4% paraformaldehyde at room temperature for 30 min. After centrifugation, cells were washed with PBS, stained with Hoechst 33258 (50 μg/mL) and incubated at 37°C for 30 min. At the end of incubation, cells were washed and resuspended in PBS for the observation of nuclear morphology under fluorescence microscope (Olympus 1 × 71). At the end, 100 nuclei from control and PLAB-treated groups were counted microscopically for the percentage of cleaved nuclei.

Data set [4] concerns U87 glioblastoma cells. Description: Flow cytometry analysis of apoptosis (Annexin V/PI). Type of data set: cell-based. To be noted: 24 h, in % (unit assumed). Here is the method:
U87 cells were treated with 5 and 10 μM PLAB in the presence or absence of z-VAD-fmk and PFTα for 24 h. After treatment, both adherent and floating cells were collected, washed with PBS, and resuspended in 200 μL of binding buffer containing 5 μL Annexin V and put in the dark for 10 min according to the kit instructions (Beyotime, Shanghai, China). After incubation, cells were labeled with 10 μL PI and samples were immediately analyzed by flow cytometry (Beckman Coulter, Epics XL).

The test system of data set [5] is U87 glioblastoma cells. Description: Flow cytometry analysis of cell cycle (PI). It is filed as cell-based. To be noted: 24 h; for cells in G2/M phase: Mean ± SEM, n = 3, control 17.63 ± 2.06. Here is the method: U87 cells were treated with 5 and 10 μM PLAB for 24 h. Following treatment, cells were harvested, washed with PBS, and fixed with 70% ethanol at 4°C for overnight. After washing twice with PBS, cells were stained with a solution containing 50 μg/mL PI and 100 μg/mL RNase A for 30 min in the dark, at room temperature. The DNA contents were analyzed by flow cytometry (Beckman Coulter, Epics XL).
In general terms: A flow cytometer gives signals particle by particle.

In data set [6] the test system is polymeric tubulin, cyclin B1, CDK1/Cdc2 in U87 glioblastoma cells. The data set can be described thus: Western blot of G2/M phase cell cycle regulators. It is filed as cell-based. To be noted: 10 μM PLAB, 3 μM colchicine, 24 h. Here is the method: (§1) After drug treatment, adherent and floating cells were collected and proteins were isolated as described previously. Nuclear and cytosolic proteins were extracted using cytosolic and nuclear extraction kit (Keygen, China) according to the manufacturer's instructions. 40 μg proteins were electrophoresed on 10% SDS-PAGE and transferred to PVDF membrane. After blocking with 5% (w/v) nonfat milk and washing with Tris-buffered saline-Tween solution (TBST), membranes were incubated overnight at 4°C with p53 (1 : 1000), BCL-2 (1 : 1000), Bax (1 : 300), Cytochrome c (1 : 200), Caspase-3 (1 : 500), Tubulin (1 : 500), Cyclin B1 (1 : 300), Cdc2 (1 : 300), β-actin (1 : 400), and AIF (1 : 1000) antibodies, respectively. After washing, the blots were incubated with horseradish peroxidase-conjugated goat anti-rabbit IgG or goat anti-mouse IgG or rabbit anti-goat IgG secondary antibodies (1 : 1000, Santa Cruz) for 1 h at room temperature. After washing with TBST, signals were detected using ECL plus chemiluminescence kit on X-ray film (Millipore Corporation, Billerica, USA).
Briefly the cell pellet was resuspended in 0.4 mL monomeric extraction buffer (20 mM Tris-HCl, pH 6.8, 0.14 M NaCl, 1 mM MgCl2, 1 mM EGTA, 0.5% Nonidet P-40 (NP-40), 0.5 mM PMSF, and 4 μg/mL paclitaxel), centrifuge at 12,000 ×g for 10 min and supernatant was removed. The pellets containing polymeric tubulin were resuspended in WIP cell lysis reagent (BIOSS, Beijing Biosynthesis Biotechnology Co., Ltd.) for 30 min and the supernatants (polymeric tubulins) were collected by centrifugation at 12,000 ×g for 10 min. The polymeric tubulins were subjected to Western blot analysis.
On the technique in general: In western blotting, separated proteins are transferred to a membrane and probed.

Data set [7] relates to p53, Bcl-2, Bax, Caspase-3, PARP, cytochrome c, AIF in U87 glioblastoma cells. The data set can be described thus: Western blot of apoptosis regulators. It is filed as cell-based. To be noted: 24 h. How it is done: as §1
Another data set has as its system Kunming mice. The data set can be described thus: In vivo organ toxicity (liver, kidneys, body weight, serum biomarkers). To be noted: 25 mg/kg intraperitoneally daily for 14 days. Also on record: species or system mouse. How it is done: In vivo studies were conducted on 12-14 week old Kunming mice weighing 43-45 g. The mice were maintained in a specific pathogen-free grade animal facility on a 12 h light/dark cycles at 25 ± 2°C. Mouse procedures were approved by the Experimental Animal Committee of Jilin University. Mice were divided into two groups. Group A (n = 5) administered with 50 μL DMSO intraperitoneally; Group B (n = 5) administered with PLAB (25 mg/kg body weight) in 50 μL DMSO intraperitoneally. The experiment was conducted over a period of two weeks. DMSO or drug was administered daily for 14 days, once a day. At the first and last day of the experiment, the body weight of each mouse was measured. At the end of experiment, mice were anesthetized using Pentobarbital sodium (50 mg/kg ip), blood was collected via cardiac puncture, allowed to clot for 10 min, centrifuge at 1000 ×g for 10 min at room temperature. Serum was separated and stored at -20°C until analysis. The liver and kidneys were excised and processed for hematoxylin and eosin staining followed standard procedures. The toxicological effect of PLAB on liver function was assessed by measuring the serum levels of AST, ALT and TBIL. Nephrotoxicity was determined by measuring the serum levels of BUN and Cr. These biochemical parameters were determined by an automated biochemical analyzer ([…] 7170, Japan).

A further data set has as its system tumor in nude mice. To be noted: 15 mg/kg and 25 mg/kg; ref Wong et al. [14]; cited from earlier work.

Where only a bound is given, the exact number is not on record here.

On to `COc1cccc2c1C(=O)c1c(O)c3c(c(O)c1C2=O)C[C@@](O)(C(=O)CO)C[C@@H]3O[C@H]1C[C@H](N)[C@H](O)[C@H](C)O1` [Doxorubicin, reference compound], for which, in the data set with U87 glioblastoma cells [1], the IC50 (as a rule, the concentration that gives 50% inhibition) worked out at 1.8 µM.
Turning to `COC(=O)C1=CC[C@@]23CC[C@@H]([C@@](C)(/C=C/C=C(\C)C(=O)O)OC2=O)[C@@]3(OC(C)=O)CC1` [PLAB, Pseudolaric acid B], the inhibition (usually the share of the control response that was lost under treatment) at 100 µM in the data set with U87 glioblastoma cells [1] (100 μM, read-out: inhibition rate) is more than 85%. Moreover, the IC50 in the data set with U87 glioblastoma cells [1] was approximately 10 µM. In the data set with U87 glioblastoma cells [2], the viability at 5 µM was 74.7 ± 1.83% and the viability at 10 µM is 56.9 ± 3.47%. In addition, the nuclear morphological changes entry in the data set on U87 glioblastoma cells [3] is “induced obvious nuclear morphological changes including nuclear shrinkage and DNA fragmentation”. Also, the apoptosis rate in the data set with U87 glioblastoma cells [4] (5 μM, Mean ± SEM, n = 3, control 2.52 ± 0.49) was 24.43 ± 1.50. The molecule also gave an apoptosis rate in the data set on U87 glioblastoma cells [4] (10 μM PLAB with general caspase inhibitor z-VAD-fmk (20 μM)) of 16.92 ± 1.30. Also, the apoptosis rate in the data set with U87 glioblastoma cells [4] (10 μM PLAB with p53 inhibitor PFTα (20 μM)) turned out to be 33.42 ± 2.85. The molecule also yielded an apoptosis rate in the data set with U87 glioblastoma cells [4] (10 μM, Mean ± SEM, n = 3, control 2.52 ± 0.49) of 50.12 ± 3.42. In addition, the “cells in G2/M phase” value in the data set on U87 glioblastoma cells [5] (5 μM) worked out at 42.25 ± 2.95. Besides, the “cells in G2/M phase” value in the data set with U87 glioblastoma cells [5] (10 μM) is on record as 67.32 ± 1.83. Moreover, the “effect of caspase inhibitor on PLAB-induced mitotic arrest” value in the data set with U87 glioblastoma cells [5] (PLAB with z-VAD-fmk (20 μM)) is reported as “did not prevent mitotic arrest”. Besides, in data set [6], the “expression of Cdk1 (Cdc2)” value was “no change in the expression of Cdk1 (Cdc2)”, the “expression of cyclin B1” value is recorded as “increased the expression of cyclin B1” and the “expression of polymeric tubulin (tubulin polymerization)” value is recorded as “downregulated polymeric tubulin”. In data set [7], the PARP cleavage entry is listed as “cleavage of PARP into 85 kDa protein”; the caspase-3 cleavage entry is “cleaved the caspase-3 into 17 kDa and 12 kDa proteins”; the “expression of Bax” value is “increased expression of Bax”; the “expression of Bcl-2” value is given as “remarkably decreased”. Moreover, in [7] (cytosolic proteins), the “expression of cytochrome c in cytosol” value is given as “increased the expression of cytochrome c in cytosol”. The “expression of p53” value in data set [7] (dose-dependent) is recorded as “markedly increased the expression of p53”. For the same molecule, the AIF nuclear translocation entry in data set [7] (nuclear proteins) is “increased the expression of AIF in nucleus dose-dependently”. In addition, the “histopathological changes in liver and kidneys” value with Kunming mice (hematoxylin and eosin staining) is on record as “No obvious morphological changes”. Also, the “TBIL, serum” value in the data set with Kunming mice (n = 5, Mean ± SEM, control 1.0 ± 0.12, n.s.) is 1.2 ± 0.26 n.s. μmol/L. Besides, the “BUN, serum” value with Kunming mice (n = 5, Mean ± SEM, control 10.94 ± 3.01, n.s.) is reported as 9.45 ± 2.53 n.s. mmol/L. Besides, the “Cr, serum” value in the data set with Kunming mice (n = 5, Mean ± SEM, control 27.4 ± 2.17, n.s.) worked out at 36.5 ± 1.99 n.s. μmol/L. Moreover, the “ALT, serum” value in the data set with Kunming mice (n = 5, Mean ± SEM, control 47.30 ± 3.70, n.s.) worked out at 55.45 ± 4.35 n.s. U/L. In the data set with Kunming mice (n = 5, Mean ± SEM, control 79 ± 5.50, n.s.), the “AST, serum” value is 87.66 ± 4.17 n.s. U/L. For the same molecule, in the data set with Kunming mice (versus control group), the “change in body weight of mice” value is listed as “No obvious change in body weight”. For the same molecule, in the data set on tumor in nude mice, the “growth of tumor in nude mice” value is listed as “significantly inhibited the growth of tumor” and the “toxicity / body weight loss in nude mice” value is on record as “without any sign of toxicity or body weight loss”.

Values taken from PMC3388351, “Pseudolaric Acid B Induces Caspase-Dependent and Caspase-Independent Apoptosis in U87 Glioblastoma Cells” (Evidence-based Complementary and Alternative Medicine : eCAM, 2012).
